Patent US6858638B2, “Substituted indazoles, compositions containing them, method of production and use” (Aventis Pharma S.A., priority 2002, dated 2005)

Assays:
c-Src protein = assay: Src kinase phosphorylation of biotinylated cdc2 substrate, fluorescence (DELFIA); assay type: biochemical, human
Protocol: The inhibition of the Src kinase is evaluated by measuring the phosphorylation of the biotinylated cdc2 substrate (Pierce) detected by fluorescence (DELFIA) using an antiphosphotyrosine antibody labeled with Europium, in 96-well Wallac plates. The c-Src protein used is a recombinant human protein produced in Baculovirus, comprising the SH3 and SH2 and the catalytic domains. The enzyme, the substrate and the various concentrations of test compounds are placed in the well in a 50 mM Tris buffer containing 10 mM MgCl2. The reaction is initiated by adding 10 μM of ATP. After incubation for 60 minutes at 30° C., the reaction is stopped by adding 75 mM EDTA. 50 μl are taken from each well and transferred into a plate coated with streptavidin. After incubation for 30 minutes at 25° C., the wells are washed with a washing buffer (Wallac) and then the antiphosphotyrosine antibody (PY20-Europium [Perkin Elmer]) is added in a volume of 75 μl. The plate is incubated for 30 minutes at 25° C. and then an “Enhancer” solution (Wallac) is added before reading the fluorescence using a fluorimeter (Perkin Elmer). The background noise is evaluated in triplicate in wells containing the substrate and the antibody in the absence of enzyme. The activity of the enzyme is measured (in triplicate) in the wells containing all the reagents in the absence of compound. The inhibition of the Src activity is expressed as percentage inhibition of the activity of the control determined in the absence of compound. The compound PP2 (Calbiochem) is included at various concentrations in each experiment as an inhibition control.

human Tie2 = molecular target: T1, human Tie2 (Homo sapiens, UniProt Q02763); assay: Tie2 phosphorylation of PLC, FlashPlate radioactivity assay; assay type: biochemical; conditions: read-out: TIE2 % inhib at 10 μM
T1 construct: amino acids of the intracellular domain 776-1124; made in house; host or cells: baculovirus expression system (vector pFastBacGT)
Protocol: The coding sequence of human Tie2 corresponding to the amino acids of the intracellular domain 776-1124 was generated by PCR using the cDNA isolated from human placenta as model. This sequence was introduced into a baculovirus expression vector pFastBacGT in the form of a GST fusion protein.
The inhibitory effect of the molecules is determined in an assay of phosphorylation of PLC by Tie2 in the presence of GST-Tie2 purified to approximately 80% homogeneity. The substrate is composed of the SH2-SH3 fragments of PLC exprressed in the form of a GST fusion protein.
The kinase activity of Tie2 is measured in a 20 mM MOPS buffer, pH 7.2, containing 10 mM MgCl2, 10 mM MnCl2, 1 mM DTT and 10 mM of glycerophosphate. A reaction mixture composed of 70 μl of kinase buffer containing 100 ng of GST-Tie2 enzyme per well is placed in a FlashPlate 96-well plate kept on ice. 10 μl of the test molecule diluted in DMSO at a maximum concentration of 10% are then added. For a given concentration, each measurement is carried out in quadruplicate. The reaction is initiated by adding 20 μl of solution containing 2 μg of GST-PLC, 2 μM of cold ATP and 1 μCi of ^33P[ATP]. After incubation for 1 hour at 37° C., the reaction is stopped by adding 1 volume (100 μl) of 200 mM EDTA. After removing the incubation buffer, the wells are washed three times with 300 μl of PBS. The radioactivity is measured on a Wallac MicroBeta 1450.
The inhibition of the Tie2 activity is calculated and expressed as percentage inhibition compared to the control activity determined in the absence of compound.

T1 sequence (Q02763 776-1124): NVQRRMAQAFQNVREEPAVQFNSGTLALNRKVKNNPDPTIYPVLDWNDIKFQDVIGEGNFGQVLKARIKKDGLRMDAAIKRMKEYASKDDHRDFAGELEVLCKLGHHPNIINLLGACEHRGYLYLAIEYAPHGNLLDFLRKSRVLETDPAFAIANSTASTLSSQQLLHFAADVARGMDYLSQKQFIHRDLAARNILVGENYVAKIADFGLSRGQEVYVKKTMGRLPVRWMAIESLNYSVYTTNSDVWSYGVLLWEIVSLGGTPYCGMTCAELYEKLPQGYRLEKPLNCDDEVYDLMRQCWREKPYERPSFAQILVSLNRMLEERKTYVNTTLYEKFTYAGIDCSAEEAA

| SRC % inhib at 10 μM (c-Src protein) | inhibition at 10 µM (human Tie2) | melting point | Structure (SMILES) |
| --- | --- | --- | --- |
| 55% | 74% | 200 °C | O=S(=O)(Nc1ccc2[nH]nc(-c3ccccc3)c2c1)c1cccc(F)c1 [Example 6, 3-Fluoro-N-(3-phenyl-1H-indazol-5-yl)benzenesulfonamide] |
| 89% | 86% | 223 °C | CS(=O)(=O)c1ccccc1S(=O)(=O)Nc1ccc2[nH]nc(-c3ccccc3)c2c1 [Example 7, 2-Methylsulfonyl-N-(3-phenyl-1H-indazol-5-yl)benzenesulfonamide] |
